PubChem BioAssay (NCI)
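The compound was tested at five concentrations on cells cultured in 96-well plates, with a 48-hour exposure period. GI50 is the concentration that inhibits growth by half. TGI marks complete inhibition of growth.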

Legend:
Assay in all cases: NCI tumour cell line growth inhibition, 48 h
CAKI-1 renal = tested on: CAKI-1 renal
HOP-62 NSCLC = tested on: HOP-62 NSCLC
NCI-H23 lung = tested on: NCI-H23 lung
NCI-H460 lung = tested on: NCI-H460 lung
RXF 393 renal = tested on: RXF 393 renal
SF-268 CNS = tested on: SF-268 CNS
SK-MEL-28 melanoma = tested on: SK-MEL-28 melanoma
SK-MEL-5 melanoma = tested on: SK-MEL-5 melanoma
SNB-75 CNS = tested on: SNB-75 CNS
UO-31 renal = tested on: UO-31 renal

O=C1NC(N/N=C\c2ccccc2)=N/C1=C/c1ccc(Cl)cc1
TGI (CAKI-1 renal): > 100 µM | TGI (HOP-62 NSCLC): 42 µM | TGI (NCI-H23 lung): 39.9 µM | TGI (NCI-H460 lung): 53.5 µM | TGI (RXF 393 renal): 47.3 µM | TGI (SF-268 CNS): 94.7 µM | TGI (SK-MEL-28 melanoma): > 100 µM | TGI (SK-MEL-5 melanoma): 43.9 µM | TGI (SNB-75 CNS): 42.2 µM | TGI (UO-31 renal): 36.2 µM

COC(=O)C(C)Sc1nc2cc(Cl)ccc2s1 (configuration not stated)
TGI (CAKI-1 renal): > 100 µM | TGI (HOP-62 NSCLC): > 100 µM | TGI (NCI-H23 lung): > 100 µM | TGI (NCI-H460 lung): > 100 µM | TGI (RXF 393 renal): > 100 µM | TGI (SF-268 CNS): > 100 µM | TGI (SK-MEL-28 melanoma): > 100 µM | TGI (SK-MEL-5 melanoma): > 100 µM | TGI (SNB-75 CNS): > 100 µM | TGI (UO-31 renal): > 100 µM

CCOC(=O)C(Cc1ccccc1)(Cc1ccc(O)cn1)NC(=O)c1ccccc1 (configuration not stated)
TGI (CAKI-1 renal): 87 µM | TGI (HOP-62 NSCLC): > 100 µM | TGI (NCI-H23 lung): > 100 µM | TGI (NCI-H460 lung): 99.2 µM | TGI (RXF 393 renal): > 100 µM | TGI (SF-268 CNS): 61.7 µM | TGI (SK-MEL-28 melanoma): > 100 µM | TGI (SK-MEL-5 melanoma): 36.6 µM | TGI (SNB-75 CNS): > 100 µM | TGI (UO-31 renal): > 100 µM

N#CCc1nc(C#N)c(N)o1
TGI (CAKI-1 renal): > 100 µM | TGI (HOP-62 NSCLC): > 100 µM | TGI (NCI-H23 lung): > 100 µM | TGI (NCI-H460 lung): > 100 µM | TGI (RXF 393 renal): > 100 µM | TGI (SF-268 CNS): > 100 µM | TGI (SK-MEL-28 melanoma): > 100 µM | GI50 (SK-MEL-5 melanoma): > 100 µM | TGI (SK-MEL-5 melanoma): > 100 µM | GI50 (SNB-75 CNS): > 100 µM | TGI (SNB-75 CNS): > 100 µM | TGI (UO-31 renal): > 100 µM

COC(=O)[C@@H]1N2C(=S)N(c3ccccc3)C(=O)[C@H]2SC1(C)C
TGI (CAKI-1 renal): > 100 µM | TGI (HOP-62 NSCLC): > 100 µM | TGI (NCI-H23 lung): > 100 µM | TGI (NCI-H460 lung): > 100 µM | TGI (RXF 393 renal): > 100 µM | TGI (SF-268 CNS): > 100 µM | TGI (SK-MEL-28 melanoma): > 100 µM | TGI (SK-MEL-5 melanoma): > 100 µM | TGI (SNB-75 CNS): > 100 µM | TGI (UO-31 renal): > 100 µM

CC(C)(C)OC(=O)N1C(OP(=O)(Oc2ccccc2)Oc2ccccc2)=COc2cccnc21
TGI (CAKI-1 renal): > 100 µM | TGI (HOP-62 NSCLC): > 100 µM | TGI (NCI-H23 lung): > 100 µM | TGI (NCI-H460 lung): 94 µM | TGI (RXF 393 renal): > 100 µM | TGI (SF-268 CNS): > 100 µM | TGI (SK-MEL-28 melanoma): > 100 µM | TGI (SK-MEL-5 melanoma): 35.5 µM | TGI (SNB-75 CNS): > 100 µM | TGI (UO-31 renal): > 100 µM

Cc1[nH]c(-c2ccccc2)c(-c2ccc(Cl)cc2)c1C(=O)ONC(=O)c1ccccc1
TGI (CAKI-1 renal): 6.88 µM | TGI (HOP-62 NSCLC): 5.45 µM | TGI (NCI-H23 lung): 15.3 µM | TGI (NCI-H460 lung): 5.11 µM | TGI (RXF 393 renal): 6.69 µM | TGI (SF-268 CNS): 6.9 µM | TGI (SK-MEL-28 melanoma): 24.9 µM | TGI (SK-MEL-5 melanoma): 14.1 µM | TGI (SNB-75 CNS): 15.1 µM | TGI (UO-31 renal): 2.89 µM

CCCCN(c1ccccc1)c1ncnc2c1cnn2C
TGI (CAKI-1 renal): > 100 µM | TGI (HOP-62 NSCLC): > 100 µM | TGI (NCI-H23 lung): > 100 µM | TGI (NCI-H460 lung): > 100 µM | TGI (RXF 393 renal): 89.4 µM | TGI (SF-268 CNS): > 100 µM | TGI (SK-MEL-28 melanoma): > 100 µM | TGI (SK-MEL-5 melanoma): > 100 µM | TGI (SNB-75 CNS): 55.9 µM | TGI (UO-31 renal): > 100 µM

O=[As](O)(O)c1cc(N=Nc2ccc(-c3ccc(N=Nc4cc([As](=O)(O)O)c(O)cc4O)cc3)cc2)c(O)cc1O
TGI (CAKI-1 renal): > 100 µM | TGI (HOP-62 NSCLC): > 100 µM | TGI (NCI-H23 lung): > 100 µM | TGI (NCI-H460 lung): > 100 µM | TGI (RXF 393 renal): > 100 µM | TGI (SF-268 CNS): > 100 µM | TGI (SK-MEL-28 melanoma): > 100 µM | TGI (SK-MEL-5 melanoma): > 100 µM | TGI (SNB-75 CNS): > 100 µM | TGI (UO-31 renal): > 100 µM

CN1C2CC(=O)CC1[C@@H]1OC(c3ccccc3)O[C@H]21 (some centres not stated)
TGI (CAKI-1 renal): > 100 µM | TGI (HOP-62 NSCLC): > 100 µM | TGI (NCI-H23 lung): > 100 µM | TGI (NCI-H460 lung): > 100 µM | TGI (RXF 393 renal): > 100 µM | TGI (SF-268 CNS): > 100 µM | TGI (SK-MEL-28 melanoma): > 100 µM | TGI (SK-MEL-5 melanoma): > 100 µM | TGI (SNB-75 CNS): > 100 µM | TGI (UO-31 renal): > 100 µM
